pIC50: −log10 of the molar value.
Key:
PDE9A = PDE9A (Homo sapiens, UniProt O76083); assay: Fluorescence polarization assay PDE9A; assay type: biochemical; conditions: substrate cGMP
Method: (§1) An experiment to check inhibition of various subtypes of the target Phosphodiesterase (PDE) enzyme in in-vitro assay was performed. […] PDE1A, PDE2A, PDE4A, PDE4B, PDE4C, PDE4D, PDE5A, PDE7A, PDE9A, PDE10A.

HaCaT cells [1] = assay: Keratinocyte (HaCaT) proliferation, MTT assay; assay type: cell-based, human; conditions: Homo sapiens, HaCaT, 72 h; read-out: IC50 of cell proliferation
Method: An experiment to check keratinocyte proliferation inhibitory activity of selected compounds of Formula-I was performed to establish its application in skin disorders related to keratinocyte hyper-proliferation. HaCaT cells, a human immortalized cell line derived from keratinocytes, representing hyper-proliferating keratinocytes was investigated for anti-proliferative potential of the selected compounds by MTT assay.

PDE4C = PDE4C (Homo sapiens, UniProt Q08493); assay: Fluorescence polarization assay PDE4C; assay type: biochemical; conditions: substrate cAMP
Method: as §1

PDE2A = PDE2A (Homo sapiens, UniProt O00408); assay: Fluorescence polarization assay PDE2A; assay type: biochemical; conditions: substrate cGMP
Method: as §1

[2] = tested on: Imiquimod induced psoriasis in BALB/c mice; assay: Imiquimod induced psoriasis model in Balb/c mice; conditions: for % inhibition of Ear inflamn. / Histopathology Scores Epidermal Thickness / Histopathology Scores Hyperkeratosis / Histopathology Scores Rete Peg Prolifern. / PASI score / Spleen weight / IL23 Levels: twice daily; for IL23 Levels: ear tissue lysate
Method: BALB/c mice (Sex: Female, Age: 7-8 Weeks) were used for induction of psoriasis using IMQ. Topical application of imiquimod (IMQ) in mice can induce and exacerbate psoriasis closely resembling human psoriasis. […] 3%, 4% and 5% and positive control of Tenovate (Clobetasol) 0.05% cream. In all 63 mg cream containing 5% of IMQ was applied to dorsal area (shaved back) and right ear for 8 days. Topical formulations from Example 7 were used during this experiment.
The parameters investigated were ear thickness change, % inhibition of ear inflammation, Psoriatic Area Severity Index (PASI). Histopathology was performed of right ear and dorsal skin by H & E staining. The biomarker in this study was inflammatory cytokine IL-23 analyzed by ELISA obtained from tissue lysate of ear region where IMQ and doses were applied.

PDE10A = PDE10A (Homo sapiens, UniProt Q9Y233); assay: Fluorescence polarization assay PDE10A; assay type: biochemical; conditions: substrate cAMP
Method: as §1

PDE5 (Human platelets) = target: T1, PDE5 (Human platelets) (Homo sapiens, UniProt O76074); assay: Radiolabeled enzyme assay PDE5; assay type: biochemical; conditions: read-out: % inhibition at 30 μM, 1.01 μM [3H]cGMP+cGMP
T1 construct: PDE5 (Human platelets); from tissue; host or cells: human platelets
Method: (§2) Enzyme assays have been optimized for incubation time, substrate concentration and method of end-product determination.

PDE4B = PDE4B (Homo sapiens, UniProt Q07343); assay: Fluorescence polarization assay PDE4B; assay type: biochemical; conditions: substrate cAMP
Method: as §1

PDE4A = PDE4A (Homo sapiens, UniProt P27815); assay: Fluorescence polarization assay PDE4A; assay type: biochemical; conditions: substrate cAMP
Method: as §1

human PBMCs = assay: Cell viability of human PBMCs, Alamar blue; assay type: cell-based
Method: Fresh human blood from healthy volunteer was collected in anticoagulant (5 mM) ethylene diamine tetra acetic acid (EDTA) containing tubes. The growth medium used was RPMI-1640 medium (with 3% FBS) and incubated at 37° C. for 60 mins in a 5% CO2 incubator with vehicle used as 1% DMSO. The cell viability was checked at various time points using Alamar blue and fluorescence readings were taken at excitation of 544 nm and emission of 590 nm.

TNF-α = TNF-α release from stimulated HaCaT cells, ELISA; assay type: cell-based, human; conditions: IFN-γ 50 ng/mL, 48 hrs
Method: (§3) HaCaT cells were maintained in T-75 cm2 flask in Dulbecco's modified Eagle medium supplemented with FBS (10%), L-glutamine (2 mM), penicillin (100 ug/ml), streptomycin (100 ug/ml) at 37° C. in 5% CO2 incubator. Cell growth was maintained to 70-80% confluence for seeding and vehicle used was 1% DMSO. The cell viability was checked at various time points using Alamar blue and fluorescence readings were taken at excitation of 544 nm and emission of 590 nm.
(§4) HaCaT cells were stimulated with different stimulators as follows: • a. Cells were exposed to stimulator LPS at 1 μg/mL for 48 hrs to stimulate IL-1β • b. Cells were exposed to stimulator IFN-γ at 50 ng/mL for 48 hrs to stimulate TNF-α, IL-6
(§5) After 48 hrs supernatants were collected and centrifuged to remove any cell debris and aliquots were used for ELISA.

PDE5A = PDE5A (Homo sapiens, UniProt O76074); assay: Fluorescence polarization assay PDE5A; assay type: biochemical; conditions: substrate cGMP
Method: as §1

PDE2 (Human platelets) = target: T2, PDE2 (Human platelets) (Homo sapiens, UniProt O00408); assay: Radiolabeled enzyme assay PDE2; assay type: biochemical; conditions: read-out: % inhibition at 30 μM, 1.01 μM [3H]cAMP+cAMP
T2 construct: PDE2 (Human platelets); from tissue; host or cells: human platelets
Method: as §2

PDE7A = PDE7A (Homo sapiens, UniProt Q13946); assay: Fluorescence polarization assay PDE7A; assay type: biochemical; conditions: substrate cAMP
Method: as §1

HaCaT cells [3] = assay: Cell viability of HaCaT cells, Alamar blue; assay type: cell-based, human
Method: as §3

IL-6 = IL-6 release from stimulated HaCaT cells, ELISA; assay type: cell-based, human; conditions: for IL-6 Conc.: IFN-γ 50 ng/mL, 48 hrs
Method: as §3, §4, §5

PDE1A = PDE1A (Homo sapiens, UniProt P54750); assay: Fluorescence polarization assay PDE1A; assay type: biochemical; conditions: substrate cGMP, Ca-CaM
Method: as §1

Chain of PDE10A (Q9Y233 whole entry, species assumed): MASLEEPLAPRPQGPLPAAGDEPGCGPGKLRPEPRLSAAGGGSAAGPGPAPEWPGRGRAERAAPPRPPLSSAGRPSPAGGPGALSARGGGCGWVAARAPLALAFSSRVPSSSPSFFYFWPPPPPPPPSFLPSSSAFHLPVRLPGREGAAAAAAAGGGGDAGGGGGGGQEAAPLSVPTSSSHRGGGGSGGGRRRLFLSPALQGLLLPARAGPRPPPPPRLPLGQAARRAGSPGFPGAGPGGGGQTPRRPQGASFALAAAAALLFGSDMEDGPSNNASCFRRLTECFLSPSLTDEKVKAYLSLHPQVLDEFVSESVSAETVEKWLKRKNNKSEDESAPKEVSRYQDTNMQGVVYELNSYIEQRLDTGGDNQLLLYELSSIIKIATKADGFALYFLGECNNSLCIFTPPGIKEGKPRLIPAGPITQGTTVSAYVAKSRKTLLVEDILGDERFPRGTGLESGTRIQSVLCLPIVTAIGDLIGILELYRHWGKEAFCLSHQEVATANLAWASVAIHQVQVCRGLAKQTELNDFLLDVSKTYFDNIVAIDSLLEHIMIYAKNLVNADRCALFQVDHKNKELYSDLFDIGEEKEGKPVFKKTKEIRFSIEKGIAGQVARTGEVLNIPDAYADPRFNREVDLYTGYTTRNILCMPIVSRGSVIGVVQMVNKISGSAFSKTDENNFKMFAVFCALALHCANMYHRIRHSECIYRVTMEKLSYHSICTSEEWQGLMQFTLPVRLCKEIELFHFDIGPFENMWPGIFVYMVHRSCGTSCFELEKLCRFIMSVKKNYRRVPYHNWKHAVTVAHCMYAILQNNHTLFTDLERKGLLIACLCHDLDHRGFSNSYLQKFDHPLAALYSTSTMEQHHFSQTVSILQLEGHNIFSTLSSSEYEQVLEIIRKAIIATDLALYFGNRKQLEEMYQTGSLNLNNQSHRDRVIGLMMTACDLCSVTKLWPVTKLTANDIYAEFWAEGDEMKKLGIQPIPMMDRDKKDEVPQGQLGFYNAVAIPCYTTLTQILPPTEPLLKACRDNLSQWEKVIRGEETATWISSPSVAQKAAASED
Chain of PDE7A (Q13946 whole entry, species assumed): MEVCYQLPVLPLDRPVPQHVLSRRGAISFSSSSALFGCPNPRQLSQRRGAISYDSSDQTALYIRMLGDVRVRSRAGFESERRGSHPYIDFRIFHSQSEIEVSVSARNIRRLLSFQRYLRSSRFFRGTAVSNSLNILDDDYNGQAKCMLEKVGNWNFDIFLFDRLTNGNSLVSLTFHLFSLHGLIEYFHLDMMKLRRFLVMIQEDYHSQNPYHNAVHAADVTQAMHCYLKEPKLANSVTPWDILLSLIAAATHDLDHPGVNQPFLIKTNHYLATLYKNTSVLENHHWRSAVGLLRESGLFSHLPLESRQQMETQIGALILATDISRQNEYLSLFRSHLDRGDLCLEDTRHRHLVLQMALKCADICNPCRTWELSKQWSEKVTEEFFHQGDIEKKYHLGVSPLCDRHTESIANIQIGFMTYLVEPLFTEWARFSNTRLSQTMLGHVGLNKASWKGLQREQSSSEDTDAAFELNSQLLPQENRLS
Chain of PDE4A (P27815 whole entry, species assumed): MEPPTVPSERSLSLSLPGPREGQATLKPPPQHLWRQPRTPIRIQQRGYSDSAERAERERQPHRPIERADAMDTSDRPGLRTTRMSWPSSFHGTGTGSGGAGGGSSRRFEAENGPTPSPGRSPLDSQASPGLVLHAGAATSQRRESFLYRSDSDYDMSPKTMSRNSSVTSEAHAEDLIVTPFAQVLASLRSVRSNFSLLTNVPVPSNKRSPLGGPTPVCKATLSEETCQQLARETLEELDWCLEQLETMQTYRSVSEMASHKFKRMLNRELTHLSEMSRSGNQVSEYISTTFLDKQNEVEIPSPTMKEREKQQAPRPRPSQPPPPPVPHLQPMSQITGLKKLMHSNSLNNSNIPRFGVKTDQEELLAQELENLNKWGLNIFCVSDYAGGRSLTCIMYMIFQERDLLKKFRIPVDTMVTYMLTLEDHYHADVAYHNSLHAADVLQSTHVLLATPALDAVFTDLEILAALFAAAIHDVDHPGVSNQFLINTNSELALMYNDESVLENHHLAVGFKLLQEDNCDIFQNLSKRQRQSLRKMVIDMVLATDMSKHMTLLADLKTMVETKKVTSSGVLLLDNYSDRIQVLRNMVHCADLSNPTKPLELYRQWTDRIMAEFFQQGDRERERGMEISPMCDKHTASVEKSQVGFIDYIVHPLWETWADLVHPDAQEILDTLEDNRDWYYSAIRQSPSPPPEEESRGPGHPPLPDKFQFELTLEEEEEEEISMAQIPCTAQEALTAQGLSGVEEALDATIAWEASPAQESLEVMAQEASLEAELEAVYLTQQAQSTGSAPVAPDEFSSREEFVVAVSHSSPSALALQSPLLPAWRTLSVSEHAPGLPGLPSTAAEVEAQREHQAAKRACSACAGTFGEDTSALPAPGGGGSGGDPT
Chain of PDE4B (Q07343 whole entry, species assumed): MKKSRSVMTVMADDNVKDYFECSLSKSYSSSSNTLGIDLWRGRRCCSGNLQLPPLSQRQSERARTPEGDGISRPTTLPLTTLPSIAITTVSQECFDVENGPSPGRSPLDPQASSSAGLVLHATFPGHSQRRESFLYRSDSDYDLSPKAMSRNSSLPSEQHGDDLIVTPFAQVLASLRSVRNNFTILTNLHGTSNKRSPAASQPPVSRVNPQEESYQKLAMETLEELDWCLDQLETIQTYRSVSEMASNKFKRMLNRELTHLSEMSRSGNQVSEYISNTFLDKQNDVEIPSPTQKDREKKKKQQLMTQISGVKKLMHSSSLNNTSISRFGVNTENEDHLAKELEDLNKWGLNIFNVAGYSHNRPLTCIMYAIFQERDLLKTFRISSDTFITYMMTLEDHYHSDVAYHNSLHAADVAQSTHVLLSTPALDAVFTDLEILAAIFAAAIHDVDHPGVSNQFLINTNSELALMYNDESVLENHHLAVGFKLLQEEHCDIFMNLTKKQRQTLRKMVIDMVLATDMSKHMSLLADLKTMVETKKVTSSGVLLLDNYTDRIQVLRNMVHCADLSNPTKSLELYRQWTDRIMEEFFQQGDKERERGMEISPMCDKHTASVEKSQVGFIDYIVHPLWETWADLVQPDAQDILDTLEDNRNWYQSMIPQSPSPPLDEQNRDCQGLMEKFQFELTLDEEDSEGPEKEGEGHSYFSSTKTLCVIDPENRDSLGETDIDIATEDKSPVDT
Chain of PDE9A (O76083 whole entry, species assumed): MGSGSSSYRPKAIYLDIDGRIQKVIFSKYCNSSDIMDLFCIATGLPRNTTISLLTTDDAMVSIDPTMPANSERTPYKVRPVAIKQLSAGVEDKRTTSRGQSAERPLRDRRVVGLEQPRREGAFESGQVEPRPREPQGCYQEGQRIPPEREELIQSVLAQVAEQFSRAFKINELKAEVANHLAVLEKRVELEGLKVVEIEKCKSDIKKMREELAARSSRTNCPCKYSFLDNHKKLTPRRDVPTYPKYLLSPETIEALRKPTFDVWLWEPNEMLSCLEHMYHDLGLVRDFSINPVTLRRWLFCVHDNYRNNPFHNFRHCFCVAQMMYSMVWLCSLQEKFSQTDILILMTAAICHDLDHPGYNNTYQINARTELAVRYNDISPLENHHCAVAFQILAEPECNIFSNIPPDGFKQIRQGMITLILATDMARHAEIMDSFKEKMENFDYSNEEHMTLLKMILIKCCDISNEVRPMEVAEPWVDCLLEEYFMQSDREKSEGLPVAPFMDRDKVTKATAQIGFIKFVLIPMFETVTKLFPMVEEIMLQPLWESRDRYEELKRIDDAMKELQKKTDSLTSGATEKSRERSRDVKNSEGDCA
T2 sequence (O00408 whole entry): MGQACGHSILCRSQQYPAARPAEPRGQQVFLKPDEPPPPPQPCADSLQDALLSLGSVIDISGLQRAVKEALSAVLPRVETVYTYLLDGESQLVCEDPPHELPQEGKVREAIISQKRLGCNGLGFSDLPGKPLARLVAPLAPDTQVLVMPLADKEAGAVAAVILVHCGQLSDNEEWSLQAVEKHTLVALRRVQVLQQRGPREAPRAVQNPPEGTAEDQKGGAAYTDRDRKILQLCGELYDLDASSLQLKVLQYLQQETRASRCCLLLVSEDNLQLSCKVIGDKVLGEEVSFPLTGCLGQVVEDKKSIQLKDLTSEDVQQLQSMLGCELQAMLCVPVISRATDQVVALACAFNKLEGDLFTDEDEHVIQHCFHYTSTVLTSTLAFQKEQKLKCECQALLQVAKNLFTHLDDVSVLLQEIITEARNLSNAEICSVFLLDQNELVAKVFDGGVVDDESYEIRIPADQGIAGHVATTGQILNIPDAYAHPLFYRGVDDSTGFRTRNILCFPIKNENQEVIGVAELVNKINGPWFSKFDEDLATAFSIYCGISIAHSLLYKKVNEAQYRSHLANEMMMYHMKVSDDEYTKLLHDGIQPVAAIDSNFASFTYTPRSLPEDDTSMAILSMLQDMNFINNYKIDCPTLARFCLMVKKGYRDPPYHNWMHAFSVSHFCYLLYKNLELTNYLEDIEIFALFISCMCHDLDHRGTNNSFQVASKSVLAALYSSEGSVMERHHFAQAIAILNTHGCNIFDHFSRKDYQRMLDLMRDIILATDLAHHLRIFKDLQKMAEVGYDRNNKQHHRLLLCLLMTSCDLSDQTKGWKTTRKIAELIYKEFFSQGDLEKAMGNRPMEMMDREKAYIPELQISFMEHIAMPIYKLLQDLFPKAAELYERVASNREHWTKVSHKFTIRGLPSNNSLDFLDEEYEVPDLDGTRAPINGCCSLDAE
Chain of PDE2A (O00408 whole entry, species assumed): as the sequence (O00408 whole entry) above

O=C(Nc1ccc([N+](=O)[O-])cc1Cl)c1cc(Cl)ccc1O [Niclosamide]
pIC50 (PDE9A): 4.22
pIC50 (HaCaT cells [1]): 5.49
pIC50 (PDE4C): 4.69
pIC50 (PDE2A): 4.94
% inhibition of Ear inflamn. ([2]; 1% topical): 27.1%
Histopathology Scores Epidermal Thickness ([2]; 1% topical): 6.8 ± 0.2
Histopathology Scores Hyperkeratosis ([2]; 1% topical): 0.8 ± 0.2
Histopathology Scores Rete Peg Prolifern. ([2]; 1% topical): 1.8 ± 0.2
PASI score ([2]; 1% topical): 15.8 ± 3.0
Spleen weight ([2]; 1% topical, Day 9): 265.2 ± 49.2 mg
IL23 Levels ([2]; 1% topical): 119.9 ± 7.8 pg/mL
% inhibition of Ear inflamn. ([2]; 2% topical): 30.4%
Histopathology Scores Epidermal Thickness ([2]; 2% topical): 5.6 ± 0.8
Histopathology Scores Hyperkeratosis ([2]; 2% topical): 1.4 ± 0.2
Histopathology Scores Rete Peg Prolifern. ([2]; 2% topical): 1.4 ± 0.2
PASI score ([2]; 2% topical): 17.2 ± 1.7
Spleen weight ([2]; 2% topical, Day 9): 214.4 ± 15.1 mg
IL23 Levels ([2]; 2% topical): 96.6 ± 10.9 pg/mL
reduction in the PASI score ([2]; 3% concentration): up to 50%
% inhibition of Ear inflamn. ([2]; 3% topical): 42.7%
Histopathology Scores Epidermal Thickness ([2]; 3% topical): 5.2 ± 0.2
Histopathology Scores Hyperkeratosis ([2]; 3% topical): 1.0 ± 0.0^$
Histopathology Scores Rete Peg Prolifern. ([2]; 3% topical): 0.5 ± 0.2
PASI score ([2]; 3% topical): 10.7 ± 4.1
Spleen weight ([2]; 3% topical, Day 9): 229.7 ± 18.7 mg
IL23 Levels ([2]; 3% topical): 83.6 ± 9.8 pg/mL
Spleen weight vs disease control (in words) ([2]; Niclosamide 2%, Nitazoxanide 3% and 5%, Clobetasol 0.05%, Day 9): marginal reduction in spleen weight
IL-23 level in ear tissue homogenates (in words) ([2]; different doses): reduction of IL-23 level
Hyperkeratosis (in words) ([2]; ear lobe histopathology): significant reduction in Hyperkeratosis
pIC50 (PDE10A): 4.72
inhibition at 30 µM (PDE5 (Human platelets)): 49%
pIC50 (PDE4B): 4.16
pIC50 (PDE4A): 4.00
% Viability (±S.E.M.) (human PBMCs; 0.01 μM, 24 hrs): 134 ± 7%
% Viability (±S.E.M.) (human PBMCs; 0.01 μM, 48 hrs): 107 ± 1%
% Viability (±S.E.M.) (human PBMCs; 0.01 μM, 72 hrs): 107 ± 6%
% Viability (±S.E.M.) (human PBMCs; 1 μM, 24 hrs): 94 ± 4%
% Viability (±S.E.M.) (human PBMCs; 1 μM, 48 hrs): 63 ± 0%
% Viability (±S.E.M.) (human PBMCs; 1 μM, 72 hrs): 60 ± 1%
% Viability (±S.E.M.) (human PBMCs; 100 μM, 24 hrs): 27 ± 5%
% Viability (±S.E.M.) (human PBMCs; 100 μM, 48 hrs): 2 ± 1%
% Viability (±S.E.M.) (human PBMCs; 100 μM, 72 hrs): −2 ± 0%
TNF-α Conc. (TNF-α; 0.05 μM): 2.5 ± 0.1 pg/mL
TNF-α Conc. (TNF-α; 0.1 μM): 2.8 ± 0.1 pg/mL
TNF-α Conc. (TNF-α; 0.25 μM): 2.5 ± 0.1 pg/mL
pIC50 (PDE5A): 4.78
inhibition at 30 µM (PDE2 (Human platelets)): 16%
pIC50 (PDE7A): 4.72
% Viability (±S.E.M.) (HaCaT cells [3]; 0.1 μM, 24 hrs): 111 ± 9%
% Viability (±S.E.M.) (HaCaT cells [3]; 0.1 μM, 48 hrs): 82 ± 3%
% Viability (±S.E.M.) (HaCaT cells [3]; 0.1 μM, 72 hrs): 98 ± 6%
% Viability (±S.E.M.) (HaCaT cells [3]; 1 μM, 24 hrs): 62 ± 4%
% Viability (±S.E.M.) (HaCaT cells [3]; 1 μM, 48 hrs): 46 ± 0%
% Viability (±S.E.M.) (HaCaT cells [3]; 1 μM, 72 hrs): 59 ± 11%
% Viability (±S.E.M.) (HaCaT cells [3]; 5 μM, 24 hrs): 48 ± 1%
% Viability (±S.E.M.) (HaCaT cells [3]; 5 μM, 48 hrs): 36 ± 2%
% Viability (±S.E.M.) (HaCaT cells [3]; 5 μM, 72 hrs): 45 ± 8%
% Viability (±S.E.M.) (HaCaT cells [3]; 10 μM, 48 hrs): 29 ± 1%
% Viability (±S.E.M.) (HaCaT cells [3]; 10 μM, 72 hrs): 33 ± 2%
% Viability (±S.E.M.) (HaCaT cells [3]; 50 μM, 24 hrs): 28 ± 1%
% Viability (±S.E.M.) (HaCaT cells [3]; 50 μM, 48 hrs): 16 ± 0%
% Viability (±S.E.M.) (HaCaT cells [3]; 50 μM, 72 hrs): 23 ± 7%
IL-6 Conc. (IL-6; 0.05 μM): 103 ± 4 pg/mL
IL-6 Conc. (IL-6; 0.1 μM): 76 ± 4 pg/mL
IL-6 release in HaCaT cells (in words) (IL-6; 0.25 μM): Reduction in IL-6 release
IL-6 Conc. (IL-6; 0.25 μM): 54 ± 11 pg/mL
pIC50 (PDE1A): 4.05
